Test results: patent US20240174631A1, “COMPOUNDS, COMPOSITIONS, AND METHODS FOR MODULATING FGF ACTIVITY” (Recovery Therapeutics, Inc., priority 2021, published 2024)

Key:
[1] = biological target: FGFR1 (Homo sapiens, UniProt P11362); assay: Thermal shift assay (TSA) of FGFR1/FGF2 complex, FGFR1 melting peak; type: binding; set-up: made in house; host or cells: Escherichia coli BL21 (DE3) Star; conditions: FGF2/FGFR1 complex; for ΔTm at 100 µM: 100 μM compound; for ΔTm at 2 µM: 2 μM compound; for ΔTm at 10 µM: 10 μM compound; for ΔTm at 25 µM: 25 μM compound
From the text: (§1) TSA was utilized to biophysically characterize the recombinant human FGFR1/FGF2 complex in the presence or absence of compounds. The assay functions by protein denaturation over a temperature gradient. During protein unfolding, exposed hydrophobic regions bind a dye and fluoresce due to solvent relaxation effects. Changes in the melting temperature of the protein complex in the presence of each compound were monitored and compounds were screened/ranked using this method.
Cell pellets were thawed and resuspend in 100 mL of FGFR1 Lysis Buffer per 9 g of pellet (20 mM Tris-HCl pH 8.0, 500 mM NaCl, 1 mM dithiothreitol) by stirring at 4° C. for 1 hour. Cells were lysed in 3 cycles on/off for 3 minutes each at 4° C. via sonication followed by centrifugation for 30 minutes at 16,000 RPM in rotor F20 at 4° C., after which the supernatant was discarded. This process was then repeated twice. The pellets were resuspended in 150 mL FGFR1 solubilization buffer (8 M urea, 20 mM Tris-HCL pH 8.0, 150 mM NaCl, 1 mM dithiothreitol) by stirring for 1 hour at 4° C., and the solution was subjected to centrifugation for 30 minutes at 16,000 RPM in rotor F20 at 4° C. The pellets were discarded, and the supernatant was filtered through a […] polyethersylfone (PES) filter. After filtration, the supernatant was added dropwise to 1 L FGFR1 refolding buffer (20 mM Tris-HCl pH 8.0, 150 mM NaCl, 0.5 M L-arginine, 25 mM MgCl2) using a glass column. Protein was concentrated by tangential flow from 1 L to 100 mL and dialyzed against 1 L of FGFR1 Dialysis Buffer (20 mM Tris-HCl pH 8.0, 150 mM NaCl, 25 mM MgCl2) for 2 hours at 4° C., and the dialysis step was repeated with fresh buffer for an additional 2 hours at 4° C. The material thus obtained was then centrifuged at 4000 RPM in Eppendorf tabletop centrifuge for 5 minutes and loaded onto 2×5 mL heparin columns. The columns were washed extensively (20 CV) using FGFR1 Heparin Buffer A (20 mM Tris-HCl pH 8.0, 150 mM NaCl, 25 mM MgCl2) and then eluted using FGFR1 Heparin Buffer B (20 mM Tris-HCl pH 8.0, 1.5 M NaCl, 25 mM MgCl2). A large peak was recovered that was >95% pure by SDS-PAGE analysis gel (Expected Mw: 25 KDa). The protein was collected and diluted in 20 mM Tris-HCl pH 8.0, 25 mM MgCl2 buffer in order to reach a NaCl concentration of 150 mM. The FGFR1 thus obtained was concentrated and stored at −80° C.
(§2) Thawed aliquots of purified FGF2 (1.0 mg/mL) and FGFR1 (1.6 mg/mL) proteins were mixed in a 1:1 molar ratio (64 μM: 64 μM) on ice for 30 min at 4° C. and plated prior to the thermal shift assay (TSA). Complex formation was verified by loading the complexed material on a size exclusion column (superdex 300GL S200) and observing the monodisperse peak corresponding to the FGF2/FGFR1 complex (˜40 kDa). Compounds of the invention were screened in dose response format (0-100 μM) with the FGF2/FGFR1 complex in triplicates. FGF2/FGFR1/compound complexes were mixed in a 1000:1 ratio with Sypro Orange dye (Sigma-Aldrich). The samples were processed using a Bio-Rad CFX C96 Touch quantitative polymerase chain reaction and run using the FRET assay settings with a heating ramp of 0.3° C./s cycling from 4 to 100° C. Data analysis was performed using the Bio-Rad CFX Manager Software (version 3.1, Bio-Rad) and changes in the melting temperature (Tm) of the complex in the presence of each compound were monitored. The results are shown in Tables 2 and 3 below and also in FIG. 1 (for Compound 2).

[2] = biological target: T1, FGF2 (Homo sapiens, UniProt P09038); assay: Thermal shift assay (TSA) of FGFR1/FGF2 complex, FGF2 melting peak; type: binding; conditions: for ΔTm at 100 µM: 100 μM compound; for ΔTm at 2 µM: 2 μM compound; for ΔTm at 10 µM: 10 μM compound; for ΔTm at 25 µM: 25 μM compound
T1 construct: made in house; host or cells: Escherichia coli BL21 (DE3) Star
From the text: as §1
One Shot BL21 (DE3) Star Escherichia coli competent cells (Thermo Fisher) were transformed with a relevant FGF2 plasmid and inoculated onto Ampicillin Luria Broth/Agar plates. Two hundred milliliter portions of Terrific Broth starter cultures were used to inoculate 9 L cultures with ampicillin at a concentration of 100 μg/mL. Cultures were grown to an O.D.600 near 1.0 at 37° C., and induced with IPTG overnight at 18° C. The cells were harvested at 7000 RPM in rotor 6000 for 5 min at 4° C. and stored at −80° C. Bacterial pellets were resuspended in 25 mM Hepes-NaOH, pH 7.5, 250 mM NaCl, and the cells were lysed in 3 cycles on/off for 3 minutes each at 4° C. via sonication. After centrifugation for 30 minutes at 16,000 RPM at 4° C., the isolated pellets were discarded, and the supernatant was filtered supernatant through a […] PES filter using 100 mL superloop. The lysate was purified over a 5 mL S column by washing the column with Lysis buffer for 5 CV then eluting using gradient from 250 mM to 1 M NaCl over 20 CV. The fractions containing FGF2 were identified via SDS-PAGE gel (Expected Mw: 15.2 KDa). The protein was collected and diluted in 20 mM Tris-HCl pH 8.0, 25 mM MgCl2 buffer in order to reach a NaCl concentration of 150 mM. The purified FGF2 was concentrated and stored at −80° C.
as §2

T1 sequence (P09038 156-288 limits assumed): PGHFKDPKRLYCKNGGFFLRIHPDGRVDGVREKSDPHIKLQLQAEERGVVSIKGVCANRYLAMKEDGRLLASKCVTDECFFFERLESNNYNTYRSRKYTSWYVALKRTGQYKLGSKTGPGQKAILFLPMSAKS
T1 sequence (P11362 142-365 partner limits assumed): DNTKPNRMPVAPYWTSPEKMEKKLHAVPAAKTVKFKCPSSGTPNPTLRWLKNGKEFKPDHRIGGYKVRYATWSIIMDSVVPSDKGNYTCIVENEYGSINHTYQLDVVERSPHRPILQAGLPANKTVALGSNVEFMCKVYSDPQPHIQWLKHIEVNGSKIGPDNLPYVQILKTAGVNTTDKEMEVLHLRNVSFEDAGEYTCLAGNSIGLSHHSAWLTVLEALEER
Sequence of FGFR1 (P11362 142-365 limits assumed): as the sequence (P11362 142-365 partner limits assumed) above
Sequence of FGFR1 (P09038 156-288 partner limits assumed): as the sequence (P09038 156-288 limits assumed) above

What does the source list for `CCN(CC)c1ccc2c(c1)CCN(C1CN(C(c3ccccc3)c3ccccc3)C1)C2` [Compound 56, 2-(1-benzhydrylazetidin-3-yl)-N,N-diethyl-1,2,3,4-tetrahydroisoquinolin-6-amine]?
ΔTm at 100 µM [1]: -0.5 °C; ΔTm at 100 µM [2]: 0 °C

Which results are given for `c1ccc(C(c2ccccc2)N2CCC(N3CCc4ccncc4C3)CC2)cc1` [Compound 4, 2-(1-benzhydrylpiperidin-4-yl)-1,2,3,4-tetrahydro-2,7-naphthyridine]?
ΔTm at 2 µM [1]: 14.5 °C; ΔTm at 2 µM [2]: -2.2 °C

Which ΔTm at 10 µM [1] does the source give for `Brc1ccc2c(c1)CCN(C1CCN(C(c3ccccc3)c3ccccc3)CC1)C2` [Compound 1, 2-(1-benzhydrylpiperidin-4-yl)-6-bromo-1,2,3,4-tetrahydroisoquinoline] here?
Its ΔTm at 10 µM is 2 °C.

What about the ΔTm at 100 µM [1] of the same compound?
The ΔTm at 100 µM was 3 °C.

What about the ΔTm at 10 µM [2] of the same compound?
The ΔTm at 10 µM was -1.5 °C.

What about the ΔTm at 100 µM [2] of the same compound?
The ΔTm at 100 µM was -1.8 °C.

For `c1ccc(C(c2ccccc2)N2CCC(N3CCc4ncccc4C3)CC2)cc1` [Compound 17, 6-(1-benzhydrylpiperidin-4-yl)-5,6,7,8-tetrahydro-1,6-naphthyridine], which ΔTm at 10 µM [1] is on record?
The ΔTm at 10 µM was 3 °C.

What about the ΔTm at 10 µM [2] of the same compound?
The ΔTm at 10 µM was -2.7 °C.

What does the source list for `c1ccc(C(c2ccccc2)N2CCC(N3CCc4cnccc4C3)CC2)cc1` [Compound 19, 2-(1-benzhydrylpiperidin-4-yl)-1,2,3,4-tetrahydro-2,6-naphthyridine]?
ΔTm at 25 µM [1]: 2.8 °C; ΔTm at 25 µM [2]: -3 °C

How did the ΔTm at 10 µM [1] turn out when `Fc1ccc2c(c1)CN(C1CCN(C(c3ccccc3)c3ccccc3)CC1)CC2` [Compound 8, 2-(1-benzhydrylpiperidin-4-yl)-7-fluoro-1,2,3,4-tetrahydroisoquinoline] was run?
Its ΔTm at 10 µM is 3.3 °C.

What about the ΔTm at 10 µM [2] of the same compound?
The ΔTm at 10 µM was -0.5 °C.

Which results are given for `Fc1cccc2c1CN(C1CCN(C(c3ccccc3)c3ccccc3)CC1)CC2` [Compound 9, 2-(1-benzhydrylpiperidin-4-yl)-8-fluoro-1,2,3,4-tetrahydroisoquinoline]?
ΔTm at 100 µM [1]: 0 °C; ΔTm at 100 µM [2]: 0 °C

`Brc1ccc2c(c1)CCN(C1CN(C(c3ccccc3)c3ccccc3)C1)C2` [Compound 43, 2-(1-benzhydrylazetidin-3-yl)-6-bromo-1,2,3,4-tetrahydroisoquinoline] was tested. Which ΔTm at 100 µM [1] did it give?
Its ΔTm at 100 µM is 6.6 °C.

And the ΔTm at 100 µM [2]?
Its ΔTm at 100 µM is -4.5 °C.

With `Clc1ccc2c(c1)CCN(C1CCN(C(c3ccccc3)c3ccccc3)CC1)C2` [Compound 5, 2-(1-benzhydrylpiperidin-4-yl)-6-chloro-1,2,3,4-tetrahydroisoquinoline] as the compound, how does the ΔTm at 25 µM [1] read?
Its ΔTm at 25 µM is 1.2 °C.

And the ΔTm at 25 µM [2]?
The ΔTm at 25 µM was -1.7 °C.

How did the ΔTm at 25 µM [1] turn out when `Fc1ccc2c(c1)CCN(C1CCN(C(c3ccccc3)c3ccccc3)CC1)C2` [Compound 6, 2-(1-benzhydrylpiperidin-4-yl)-6-fluoro-1,2,3,4-tetrahydroisoquinoline] was run?
Its ΔTm at 25 µM is 1.5 °C.

And the ΔTm at 25 µM [2]?
The ΔTm at 25 µM was 0 °C.

`FC1(F)CN(C2CCN(C(c3ccccc3)c3ccccc3)CC2)Cc2ccccc21` [Compound 21, 2-(1-benzhydrylpiperidin-4-yl)-4,4-difluoro-1,2,3,4-tetrahydroisoquinoline] was tested. Which ΔTm at 2 µM [1] did it give?
Its ΔTm at 2 µM is 11.6 °C.

And the ΔTm at 2 µM [2]?
Its ΔTm at 2 µM is -3.6 °C.

What does the source list for `Fc1cccc2c1CCN(C1CCN(C(c3ccccc3)c3ccccc3)CC1)C2` [Compound 7, 2-(1-benzhydrylpiperidin-4-yl)-5-fluoro-1,2,3,4-tetrahydroisoquinoline]?
ΔTm at 10 µM [1]: 10.7 °C; ΔTm at 10 µM [2]: -0.2 °C

What does the source list for `CCN(CC)c1ccc2c(c1)CCN(C1CCN(Cc3ccc(F)cc3)CC1)C2` [Compound 85, N,N-diethyl-2-(1-(4-fluorobenzyl)piperidin-4-yl)-1,2,3,4-tetrahydroisoquinolin-6-amine]?
ΔTm at 2 µM [1]: 14 °C; ΔTm at 2 µM [2]: 0 °C

How did the ΔTm at 2 µM [1] turn out when `Fc1cccc2c1CCN(C1CN(C(c3ccccc3)c3ccccc3)C1)C2` [Compound 38, 2-(1-benzhydrylazetidin-3-yl)-5-fluoro-1,2,3,4-tetrahydroisoquinoline] was run?
Its ΔTm at 2 µM is 9.8 °C.

And the ΔTm at 2 µM [2]?
The ΔTm at 2 µM was -2.7 °C.

Which ΔTm at 25 µM [1] does the source give for `c1ccc(C(c2ccccc2)N2CCC(N3CCc4cccnc4C3)CC2)cc1` [Compound 14, 7-(1-benzhydrylpiperidin-4-yl)-5,6,7,8-tetrahydro-1,7-naphthyridine] here?
The ΔTm at 25 µM was 5.4 °C.

What about the ΔTm at 25 µM [2] of the same compound?
The ΔTm at 25 µM was -3.3 °C.

Which ΔTm at 100 µM [1] does the source give for `Fc1ccc(CN2CCC(N3CCc4cc(Br)ccc4C3)CC2)cc1` [Compound 81, 6-bromo-2-(1-(4-fluorobenzyl)piperidin-4-yl)-1,2,3,4-tetrahydroisoquinoline] here?
The ΔTm at 100 µM was 0.3 °C.

And the ΔTm at 100 µM [2]?
The ΔTm at 100 µM was 0 °C.

For `N#Cc1ccc2c(c1)CCN(C1CCN(C(c3ccccc3)c3ccccc3)CC1)C2` [Compound 3, 2-(1-benzhydrylpiperidin-4-yl)-1,2,3,4-tetrahydroisoquinoline-6-carbonitrile], which ΔTm at 25 µM [1] is on record?
Its ΔTm at 25 µM is 0 °C.

What about the ΔTm at 25 µM [2] of the same compound?
Its ΔTm at 25 µM is 3.7 °C.
